From US20250171457A1, “NITROGEN-CONTAINING HETEROCYCLIC COMPOUND HAVING NRF2 ACTIVATION EFFECT” (CHUGAI SEIYAKU KABUSHIKI KAISHA, priority 2022, published 2025)

System: Nrf2 transcriptional activity (pARE-Luc reporter) in HepG2 cells
Test: In vitro Nrf2 transcriptional activity measurement by ARE-dependent reporter assay in HepG2 cell
Assay type: cell-based, human
In short: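 HepG2 cells transfected with pGL4.37 (pARE-Luc), replated onto compound and incubated 4 h at 37° C; luciferase read by Bright-Glo luminescence. Response normalized to 100% set by a reference compound at 3.75 μM; EC50 from dose-response curve.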

[1] = Homo sapiens, HepG2 cells transfected with pARE-Luc, 4 hours at 37° C., luciferase activity of Example 1-54 or Example 17-23 at 3.75 μM defined as 100%

Row | Compound | EC50 [1] [nM] | EC50 (HepG2 cells, pARE-Luc reporter, 4 hours, 100% = Example 1-54 or Example 17-23 at 3.75 μM (repeat print of Table 20-1)) [nM]
1 | Cn1cc(-c2cc(Cl)c(C(=O)N3CNc4c(cccc4-c4cc(N5CCOCC5)c(C(=O)O)cc4F)C3)c(Cl)c2)cn1 [Compound 18-8, 4-[3-[2,6-Dichloro-4-(1-methylpyrazol-4-yl)benzoyl]-2,4-dihydro-1H-quinazolin-8-yl]-5-fluoro-2-morpholin-4-ylbenzoic acid] | 2.8 | –
2 | Cn1cc(-c2cc(Cl)c(C(=O)N3Cc4cccc(-c5cc(N6CCOCC6)c(C(=O)O)cc5F)c4NC3=O)c(Cl)c2)cn1 [Compound 18-9, 4-[3-[2,6-Dichloro-4-(1-methylpyrazol-4-yl)benzoyl]-2-oxo-1,4-dihydroquinazolin-8-yl]-5-fluoro-2-morpholin-4-ylbenzoic acid] | 23 | –
3 | O=C(O)c1ccc(-c2cccc3c2OCN(C(=O)c2c(Cl)cc(N4CCC(N5CCOCC5)CC4)cc2Cl)C3)nc1N1CCCCC1 [Compound 18-10, 6-[3-[2,6-Dichloro-4-(4-morpholin-4-ylpiperidin-1-yl)benzoyl]-2,4-dihydro-1,3-benzoxazin-8-yl]-2-piperidin-1-ylpyridine-3-carboxylic acid] | 36 | –
4 | Cn1cc(-c2cc(Cl)c(C(=O)N3CCc4c(cccc4-c4ccc(C(=O)O)c(N5CCCCC5)n4)C3)c(Cl)c2)cn1 [Compound 18-11, 6-[2-[2,6-Dichloro-4-(1-methylpyrazol-4-yl)benzoyl]-3,4-dihydro-1H-isoquinolin-5-yl]-2-piperidin-1-ylpyridine-3-carboxylic acid] | 310 | –
5 | Cn1cc(-c2cc(Cl)c(C(=O)N3COc4c(ccnc4-c4ccc(C(=O)O)c(N5CCOCC5)c4)C3)c(Cl)c2)cn1 [Compound 18-12, 4-[3-[2,6-Dichloro-4-(1-methylpyrazol-4-yl)benzoyl]-2,4-dihydropyrido[4,3-e][1,3]oxazin-8-yl]-2-morpholin-4-ylbenzoic acid] | 24 | –
6 | Cc1cc(N2CC3(C2)OCC(C)(C)CO3)cc(C)c1C(=O)N1COc2c(cccc2-c2cc(N3C4CCC3COC4)c(C(=O)O)cc2F)C1 [Compound 19-2, 4-[3-[4-(7,7-Dimethyl-5,9-dioxa-2-azaspiro[3.5]nonan-2-yl)-2,6-dimethylbenzoyl]-2,4-dihydro-1,3-benzoxazin-8-yl]-5-fluoro-2-(3-oxa-8-azabicyclo[3.2.1]octan-8-yl)benzoic acid] | 1.6 | –
7 | C[C@@H]1CN(c2cc(F)c(C(=O)N3COc4c(cccc4-c4cc(N5C6CCC5COC6)c(C(=O)O)cc4F)C3)c(Cl)c2)[C@H](C)CN1C [Compound 19-3, 4-[3-[2-Chloro-6-fluoro-4-[(2R,5R)-2,4,5-trimethylpiperazin-1-yl]benzoyl]-2,4-dihydro-1,3-benzoxazin-8-yl]-5-fluoro-2-(3-oxa-8-azabicyclo[3.2.1]octan-8-yl)benzoic acid] | 1.2 | –
8 | Cc1cc(N2C[C@@H](C)N(C)C[C@H]2C)cc(Cl)c1C(=O)N1COc2c(cccc2-c2cc(N3C4CCC3COC4)c(C(=O)O)cc2F)C1 [Compound 19-4, 4-[3-[2-Chloro-6-methyl-4-[(2R,5R)-2,4,5-trimethylpiperazin-1-yl]benzoyl]-2,4-dihydro-1,3-benzoxazin-8-yl]-5-fluoro-2-(3-oxa-8-azabicyclo[3.2.1]octan-8-yl)benzoic acid] | 1.9 | –
9 | CC1(C)COC2(CN(c3cc(Cl)c(C(=O)N4COc5c(cccc5-c5cc(N6C7CCC6COC7)c(C(=O)O)cc5F)C4)c(C#N)c3)C2)OC1 [Compound 19-5, 4-[3-[2-Chloro-6-cyano-4-(7,7-dimethyl-5,9-dioxa-2-azaspiro[3.5]nonan-2-yl)benzoyl]-2,4-dihydro-1,3-benzoxazin-8-yl]-5-fluoro-2-(3-oxa-8-azabicyclo[3.2.1]octan-8-yl)benzoic acid] | 2.7 | –
10 | C[C@@H]1CN(c2cnc(C(=O)N3COc4c(cccc4-c4cc(N5C6CCC5COC6)c(C(=O)O)cc4F)C3)c(Cl)c2)[C@H](C)CN1C [Compound 19-6, 4-[3-[3-Chloro-5-[(2R,5R)-2,4,5-trimethylpiperazin-1-yl]pyridine-2-carbonyl]-2,4-dihydro-1,3-benzoxazin-8-yl]-5-fluoro-2-(3-oxa-8-azabicyclo[3.2.1]octan-8-yl)benzoic acid] | 6.3 | –
11 | C[C@@H]1CN(C)CCN1c1cc(F)c(C(=O)N2COc3c(cccc3-c3cc(N4C5CCC4COC5)c(C(=O)O)cc3F)C2)c(Cl)c1 [Compound 19-7, 4-[3-[2-Chloro-4-[(2R)-2,4-dimethylpiperazin-1-yl]-6-fluorobenzoyl]-2,4-dihydro-1,3-benzoxazin-8-yl]-5-fluoro-2-(3-oxa-8-azabicyclo[3.2.1]octan-8-yl)benzoic acid] | 2.3 | –
12 | C[C@@H]1CN(C)CCN1c1ccc(C(=O)N2COc3c(cccc3-c3cc(N4C5CCC4COC5)c(C(=O)O)cc3F)C2)c(Cl)c1 [Compound 19-8, 4-[3-[2-Chloro-4-[(2R)-2,4-dimethylpiperazin-1-yl]benzoyl]-2,4-dihydro-1,3-benzoxazin-8-yl]-5-fluoro-2-(3-oxa-8-azabicyclo[3.2.1]octan-8-yl)benzoic acid] | 3.9 | –
13 | Cc1nc(N2CC3(C2)OCC(C)(C)CO3)cc(Cl)c1C(=O)N1COc2c(cccc2-c2cc(N3C4CCC3COC4)c(C(=O)O)cc2F)C1 [Compound 19-9, 4-[3-[4-Chloro-6-(7,7-dimethyl-5,9-dioxa-2-azaspiro[3.5]nonan-2-yl)-2-methylpyridine-3-carbonyl]-2,4-dihydro-1,3-benzoxazin-8-yl]-5-fluoro-2-(3-oxa-8-azabicyclo[3.2.1]octan-8-yl)benzoic acid] | – | 1.4
14 | CC1(C)COC2(CN(c3cc(F)c(C(=O)N4COc5c(cccc5-c5cc(N6C7CCC6COC7)c(C(=O)O)cc5F)C4)c(Cl)c3)C2)OC1 [Compound 19-10, 4-[3-[2-Chloro-4-(7,7-dimethyl-5,9-dioxa-2-azaspiro[3.5]nonan-2-yl)-6-fluorobenzoyl]-2,4-dihydro-1,3-benzoxazin-8-yl]-5-fluoro-2-(3-oxa-8-azabicyclo[3.2.1]octan-8-yl)benzoic acid] | 2.5 | –
15 | CC1(C)COC2(CN(c3ccc(C(=O)N4COc5c(cccc5-c5cc(N6C7CCC6COC7)c(C(=O)O)cc5F)C4)c(Cl)c3)C2)OC1 [Compound 19-11, 4-[3-[2-Chloro-4-(7,7-dimethyl-5,9-dioxa-2-azaspiro[3.5]nonan-2-yl)benzoyl]-2,4-dihydro-1,3-benzoxazin-8-yl]-5-fluoro-2-(3-oxa-8-azabicyclo[3.2.1]octan-8-yl)benzoic acid] | 4.3 | –
16 | Cn1nnc2c(N3CC4(C3)OCC(C)(C)CO4)cc(Cl)c(C(=O)N3COc4c(cccc4-c4cc(N5C6CCC5COC6)c(C(=O)O)cc4F)C3)c21 [Compound 19-12, 4-[3-[5-Chloro-7-(7,7-dimethyl-5,9-dioxa-2-azaspiro[3.5]nonan-2-yl)-3-methylbenzotriazole-4-carbonyl]-2,4-dihydro-1,3-benzoxazin-8-yl]-5-fluoro-2-(3-oxa-8-azabicyclo[3.2.1]octan-8-yl)benzoic acid] | 2.5 | –
17 | Cn1nc2c(N3CC4(C3)OCC(C)(C)CO4)cc(Cl)c(C(=O)N3COc4c(cccc4-c4cc(N5C6CCC5COC6)c(C(=O)O)cc4F)C3)c2n1 [Compound 19-13, 4-[3-[5-Chloro-7-(7,7-dimethyl-5,9-dioxa-2-azaspiro[3.5]nonan-2-yl)-2-methylbenzotriazole-4-carbonyl]-2,4-dihydro-1,3-benzoxazin-8-yl]-5-fluoro-2-(3-oxa-8-azabicyclo[3.2.1]octan-8-yl)benzoic acid] | 2.1 | –
18 | Cn1nnc2c(C(=O)N3COc4c(cccc4-c4cc(N5C6CCC5COC6)c(C(=O)O)cc4F)C3)c(Cl)cc(N3CC4(C3)OCC(C)(C)CO4)c21 [Compound 19-14, 4-[3-[5-Chloro-7-(7,7-dimethyl-5,9-dioxa-2-azaspiro[3.5]nonan-2-yl)-1-methylbenzotriazole-4-carbonyl]-2,4-dihydro-1,3-benzoxazin-8-yl]-5-fluoro-2-(3-oxa-8-azabicyclo[3.2.1]octan-8-yl)benzoic acid] | 4.1 | –
19 | COC1CC2(C1)CN(c1cc(Cl)c(C(=O)N3COc4c(cccc4-c4cc(N5C6CCC5COC6)c(C(=O)O)cc4F)C3)c3c1nc(C)n3C)C2 [Compound 19-15, 4-[3-[5-Chloro-7-(6-methoxy-2-azaspiro[3.3]heptan-2-yl)-2,3-dimethylbenzimidazole-4-carbonyl]-2,4-dihydro-1,3-benzoxazin-8-yl]-5-fluoro-2-(3-oxa-8-azabicyclo[3.2.1]octan-8-yl)benzoic acid] | 2.3 | –
20 | COC1CC2(C1)CN(c1cc(Cl)c(C(=O)N3COc4c(cccc4-c4cc(N5C6CCC5COC6)c(C(=O)O)cc4F)C3)c3nc(C)n(C)c13)C2 [Compound 19-16, 4-[3-[5-Chloro-7-(6-methoxy-2-azaspiro[3.3]heptan-2-yl)-1,2-dimethylbenzimidazole-4-carbonyl]-2,4-dihydro-1,3-benzoxazin-8-yl]-5-fluoro-2-(3-oxa-8-azabicyclo[3.2.1]octan-8-yl)benzoic acid] | 17 | –
21 | CN1CCC2(CC1)CN(c1cc(Cl)c(C(=O)N3COc4c(cccc4-c4cc(N5C6CCC5COC6)c(C(=O)O)cc4F)C3)c(Cl)c1)C2 [Compound 19-17, 4-[3-[2,6-Dichloro-4-(7-methyl-2,7-diazaspiro[3.5]nonan-2-yl)benzoyl]-2,4-dihydro-1,3-benzoxazin-8-yl]-5-fluoro-2-(3-oxa-8-azabicyclo[3.2.1]octan-8-yl)benzoic acid] | 6.1 | –
22 | CC[C@@H]1CN(C)CCN1c1cc(Cl)c(C(=O)N2COc3c(cccc3-c3cc(N4C5CCC4COC5)c(C(=O)O)cc3F)C2)c(Cl)c1 [Compound 19-18, 4-[3-[2,6-Dichloro-4-[(2R)-2-ethyl-4-methylpiperazin-1-yl]benzoyl]-2,4-dihydro-1,3-benzoxazin-8-yl]-5-fluoro-2-(3-oxa-8-azabicyclo[3.2.1]octan-8-yl)benzoic acid] | 1.3 | –
